One data set relates to Chaetomium globosum. Kind of data set: Wood preservative efficacy against fungi, agar plate colony diameter. The class given is cell-based. As to conditions: 10 ppm, Table 6B. The protocol: (§1) Each plate was inoculated with a spore suspension or with a small piece of agar (1 mm) from the margin of an actively growing colony of the test fungus. The fungi employed are listed below. After incubation at 22° C. and 70% relative humidity during a period long enough to allow significant growth of untreated controls, the diameters of the fungus colonies were measured and scored using the following rating system: 0=free of fungal growth 1=25% of fungal growth compared to untreated 2=50% of fungal growth compared to untreated 3=75% of fungal growth compared to untreated 4=Growth equal to that of untreated The scores measured for wood preservation efficacy of the compounds of this invention are listed in Tables 6a and 6b. In these Tables, the lower numbers are the most preferred species. Chaetomium globosum

The next data set deals with Pseudomonas aeruginosa. Kind of data set: Wood preservative efficacy against bacteria and yeasts, tryptose agar plates. The class given is cell-based. More on the design: key: 0 = growth equal to control, 1 = growth inhibited, 2 = no growth. The note with it: 100 ppm in tryptose agar. How it is done: Compositions were prepared by dissolving the compounds shown in Table 1 in 50% ethanol and further diluting with sterile distilled water. […] After cooling, the medium was inoculated with the bacteria listed below. After sufficient growth of the untreated cultures, the compounds were evaluated using the following rating system: 0=growth equal to control 1=inhibition of growth by the compound 2=no growth under the influence of the compound. In this Table, the higher numbers are the most preferred species. Pseudomonas aeruginosa (gram neg)

Another data set relates to Pseudomonas alcaligenes. Described as above. More on the design: key: 0 = growth equal to control, 1 = inhibition, 2 = no growth. As to conditions: 100 ppm in tryptose agar. The data set is classed as cell-based. The protocol:
Compositions were prepared by dissolving the compounds shown in Table 1 in 50% ethanol and further diluting with sterile distilled water. […] After cooling, the medium was inoculated with the bacteria listed below. After sufficient growth of the untreated cultures, the compounds were evaluated using the following rating system: 0=growth equal to control 1=inhibition of growth by the compound 2=no growth under the influence of the compound. In this Table, the higher numbers are the most preferred species. Pseudomonas alcaligenes (gram neg)

The test system of another data set is Flavobacterium sp. Described as above. The data set is classed as cell-based. Also noted: key: 0 = growth equal to control, 1 = growth inhibited, 2 = no growth. How it is done: Compositions were prepared by dissolving the compounds shown in Table 1 in 50% ethanol and further diluting with sterile distilled water. […] After cooling, the medium was inoculated with the bacteria listed below. After sufficient growth of the untreated cultures, the compounds were evaluated using the following rating system: 0=growth equal to control 1=inhibition of growth by the compound 2=no growth under the influence of the compound. In this Table, the higher numbers are the most preferred species. Flavobacterium sp. (gram neg)

Another data set relates to Coniophora puteana. Kind of data set: Wood preservative efficacy against fungi, agar plate colony diameter. The data set is classed as cell-based. Also noted: key: 0 = no fungal growth, 1-3 = 25/50/75% of untreated, 4 = equal. The note with it: 10 ppm, Table 6B. How it is done:
as §1, with “Coniophora puteana (syn. C. cerebella)” for “Chaetomium globosum”

The subject of another data set is Enterobacter aerogenes. Kind of data set: Wood preservative efficacy against bacteria and yeasts, tryptose agar plates. The class given is cell-based. More on the design: key: 0 = growth equal to control, 1 = inhibition, 2 = no growth. The protocol:
Compositions were prepared by dissolving the compounds shown in Table 1 in 50% ethanol and further diluting with sterile distilled water. […] After cooling, the medium was inoculated with the bacteria listed below. After sufficient growth of the untreated cultures, the compounds were evaluated using the following rating system: 0=growth equal to control 1=inhibition of growth by the compound 2=no growth under the influence of the compound. In this Table, the higher numbers are the most preferred species. Enterobacter aerogenes (gram neg)

Another data set concerns Coriolus versicolor. Nature of the data set: Wood preservative efficacy against fungi, agar plate colony diameter. The data set is classed as cell-based. The note with it: 10 ppm, Table 6B. How it is done:
as §1, with “Coriolus versicolor” for “Chaetomium globosum”

Another data set concerns Streptomyces albus. Nature of the data set: Wood preservative efficacy against bacteria and yeasts, tryptose agar plates. The data set is classed as cell-based. Also noted: key: 0 = growth equal to control, 1 = inhibition, 2 = no growth. The protocol: Compositions were prepared by dissolving the compounds shown in Table 1 in 50% ethanol and further diluting with sterile distilled water. […] After cooling, the medium was inoculated with the bacteria listed below. After sufficient growth of the untreated cultures, the compounds were evaluated using the following rating system: 0=growth equal to control 1=inhibition of growth by the compound 2=no growth under the influence of the compound. In this Table, the higher numbers are the most preferred species. Streptomyces albus (gram pos)

For another data set, the system named is Mucor sp. Kind of data set: Wood preservative efficacy against fungi, agar plate colony diameter. The data set is classed as cell-based. The note with it: 100 ppm, Table 6B. The protocol: as §1, with “Mucor sp.” for “Chaetomium globosum”
The test system of another data set is Escherichia coli. Nature of the data set: Wood preservative efficacy against bacteria and yeasts, tryptose agar plates. The class given is cell-based. More on the design: key: 0 = growth equal to control, 1 = growth inhibited, 2 = no growth. The protocol:
Compositions were prepared by dissolving the compounds shown in Table 1 in 50% ethanol and further diluting with sterile distilled water. […] After cooling, the medium was inoculated with the bacteria listed below. After sufficient growth of the untreated cultures, the compounds were evaluated using the following rating system: 0=growth equal to control 1=inhibition of growth by the compound 2=no growth under the influence of the compound. In this Table, the higher numbers are the most preferred species. Escherichia coli ([…])

A further data set has as its system Bacillus cereus mycoides. The class given is cell-based. Also noted: scale not given here.
In a further data set the test system is Aspergillus flavus. Nature of the data set: Wood preservative efficacy against fungi, agar plate colony diameter. The data set is classed as cell-based. As to conditions: 10 ppm, Table 6B. How it is done: as §1, with “Aspergillus flavus” for “Chaetomium globosum”
Data set [1] deals with blue-stain fungi and molds. Nature of the data set: Activity against blue-stain fungi and molds in a stick test (threshold concentrations). The note with it: beech sticks, 22° C., 90% relative humidity. How it is done: Representative compounds of this invention were dissolved in 50% ethanol. Each compound was then diluted serially using 50% ethanol. […] After three (3) hours, the solutions containing the test compounds were poured off and the treated sticks were allowed to dry in a sterile laminar air flow. Each treated stick was then placed in a Petri dish which had been previously seeded with inoculum. Two drops of a test fungal or spore suspension were pipetted onto the upper surface of each treated stick. The Petri dishes containing the treated sticks were incubated at 22° C. and 90% relative humidity. The treated sticks were evaluated after there was sufficient growth of fungus on control sticks (i.e., untreated sticks) incubated in the same manner. The following score system was used: 0: Stick free of fungal/mold growth 1: Traces of fungal growth on the stick 2: Slight growth (5 to 25% of the surface covered with fungal growth) 3: Moderate growth (25 to 50% covered with fungal growth) 4. Vigorous to maximum fungal growth (more than 50% growth) […]

SMILES strings stand for the structures. Where two headings read alike, the source gives them in different places. A value given as a limit tells only on which side of the number the result lay.

As to `C[S+]1CCON=C1c1ccccc1` (stereo not shown) [Compound 17], the “Score of fungicidal activity, C. GLOBOSUM” value with Chaetomium globosum is reported as 4. The “Score of bactericidal activity, P. aeruginosa” value in the data set with Pseudomonas aeruginosa amounted to 0. Further, in the data set on Pseudomonas alcaligenes, the “Score of bactericidal activity, P. alcalgenes” value amounted to 0. The “Score of bactericidal activity, Flavobacter” value in the data set with Flavobacterium sp. (10 ppm in tryptose agar) and in the data set on Flavobacterium sp. (100 ppm in tryptose agar) was 0 each time. In the data set on Coniophora puteana, the “Score of fungicidal activity, C. PUTEANA” value is listed as 4. Further, the “Score of bactericidal activity, E. aerogenes” value in the data set with Enterobacter aerogenes (10 ppm in tryptose agar) and in the data set on Enterobacter aerogenes (100 ppm in tryptose agar) was 0 throughout. Moreover, the “Score of fungicidal activity, G. VERSICLOR” value in the data set on Coriolus versicolor was 4. Also, the “Score of bactericidal activity, S. albus” value in the data set on Streptomyces albus (10 ppm in tryptose agar) and with Streptomyces albus (100 ppm in tryptose agar) was 0 each time. Also, the “Score of fungicidal activity, MUCOR SP” value in the data set on Mucor sp. was 4. Further, the “Score of bactericidal activity, E. Coli” value with Escherichia coli (10 ppm in tryptose agar) and in the data set on Escherichia coli (100 ppm in tryptose agar) was 0 in each case. Also, the “Score of bactericidal activity, B. cereus mycoides” value in the data set on Bacillus cereus mycoides (10 ppm in tryptose agar) and in the data set with Bacillus cereus mycoides (100 ppm in tryptose agar) was 0 each time. The “Score of fungicidal activity, A. FLAVUS” value with Aspergillus flavus stood at 4.
As for `CC1C[S+]([O-])C(c2cccs2)=NO1` (stereo not shown) [Compound 50, 5,6-dihydro-6-methyl-3-(2-thienyl)-1,4,2-oxathiazine-4-oxide], the melting point fell in the range of 114 to 115 °C. The “Threshold concentration (ppm), A. niger, score 0” value in data set [1] (A. niger, minimum concentration to obtain score 0) came out at 1000 ppm. Further, in data set [1] (A. niger, minimum concentration to obtain score 1-2), the “Threshold concentration (ppm), A. niger, score 1-2” value is listed as 250-500 ppm. Besides, the “Threshold concentration (ppm), Aureobasidium, score 0” value in [1] (Aureobasidium, minimum concentration to obtain score 0) is recorded as over 1000 ppm. Also, the “Threshold concentration (ppm), Aureobasidium, score 1-2” value in data set [1] (Aureobasidium, minimum concentration to obtain score 1-2) is listed as 100-500 ppm. For the same compound, the “Threshold concentration (ppm), Sclerophoma, score 0” value in [1] (Sclerophoma, minimum concentration to obtain score 0) is 100 ppm. Further, the “Threshold concentration (ppm), Sclerophoma, score 1-2” value in [1] (Sclerophoma, minimum concentration to obtain score 1-2) is listed as 50-100 ppm. Moreover, in data set [1] (Trichoderma, minimum concentration to obtain score 0), the “Threshold concentration (ppm), Trichoderma, score 0” value is 5000 ppm. In [1] (Trichoderma, minimum concentration to obtain score 1-2), the “Threshold concentration (ppm), Trichoderma, score 1-2” value is recorded as 1000-2500 ppm.
On to `CC1CSC(c2cccs2)=NO1` (stereo not shown) [Compound 52, 5,6-dihydro-6-methyl-3-(2-thienyl)-1,4,2-oxathiazine], for which the melting point is 70 to 72 °C.
Still for that read-out and setting: the same measure for `Clc1ccc(C2=NOCCS2)s1` [Compound 59, 3-(5-chloro-2-thienyl)-5,6-dihydro-1,4,2-oxathiazine]: 74 to 77 °C.

By melting point is commonly meant the temperature of the solid-liquid transition.

The values are drawn from patent publication US6372297B1, “Wood preservative oxathiazines” (Uniroyal Chemical Company, Inc., priority 1993, dated 2002).
